# In patent US11426402B2, “IRE1 activating compounds for use in therapy” (The Scripps Research Institute, priority 2019, dated 2022):
# Tests used:
# [1] = tested on: IRE1/XBP1s signaling pathway; test: XBP1-RLuc splicing reporter in HEK293T-REx cells; assay type: cell-based; settings: HEK293-T-REx; HEK293T-REx XBP1-RLuc cells, 18 hr; read-out: EC50 of XBP1-RLuc activation
# Protocol: FIG. 2A and FIG. 2B. Activation of RLuc luminescence in HEK293T-Rex cells stably expressing XBP1s-RLuc treated with 10 μM IRE1 activators in the presence or absence of IRE1 inhibitor 4 μ8c (32 μM) for 18 hr. Luminescence is shown as % signal relative to Tg treatment (500 nM; 18 hr). Error bars represent standard deviation for n=3 replicates (FIG. 2A), Activation of RLuc luminescence in HEK293T-Rex cells stably expressing XBP1s-RLuc treated with the indicated concentrations of IRE1 activator compounds for 18 hr. Luminescence is shown as % signal relative to Tg treatment (500 nM; 18 hr) Error bars represent standard deviation for n=3 replicates (FIG. 2B).
# HEK293T-Rex cells incorporating either the XBP1s-Rluc or ERSE-FLuc reporters were collected by trypsinization and resuspended at a density of 500,000 cells per mL. The assay was started by dispensing 5 μL of cell suspension into each well of white, solid-bottom 1536-well plates using a flying reagent dispenser (FRD) and placed into an online incubator for 3 hr. Cells were then treated with 34 nL/well of either test compounds to give final concentrations of 5.17 μM, DMSO (low control, final concentration 0.68%, 0% activation) or 37 μM of Delta-7 thapsigargin (high control, final concentration 500 nM, 100% activation). Plates were incubated for 18 hr at 37° C., removed from the incubator and equilibrated to room temperature for 10 min. Luciferase activity was detected by addition of 5 μL of ONE-Glo reagent (Promega) to each well. After a 10 min incubation time, light emission was measured with the ViewLux reader (PerkinElmer).
# The percent activation of each test compound was calculated as follows: % Activation=100*(Test Compound-Median Low Control)/(Median High Control Median Low Control). Primary screening of the 646,275 compound library at Scripps Florida yielded 10,114 hits for XBP1s Renilla Luciferase activity at ≥13.83% activation by thapsigargin. Compounds that hit in more than 7 screens (promiscuity score) were eliminated, as well as those that elicited HSP70 activation. The top 6,391 remaining compounds (activation≥16.36%) were moved forward to triplicate confirmation screening and HEK TREX CTG cytotoxicity counterscreening. Duplicates were removed from the resulting list, and the top 638 activating compounds (≥15.92%) were moved forward for triplicate titration screening and HEK TREX CTG titration counterscreening.
# A HEK293^T-REx cell line that stably expresses a XBP1-Renilla luciferase (XBP1-RLuc) splicing reporter was used to identify compounds that activated the IRE1/XBP1s signaling pathway^37. Activated IRE1selectively splices mRNA encoded by this reporter, resulting in a frame-shift that allows expression of the active Renilla luciferase enzyme^37. […]
# [2] = tested on: PERK geneset; test: RNAseq geneset analysis in HEK293T cells, PERK geneset; assay type: cell-based, human; settings: 6 h
# Protocol: (§1) Cells were lysed and total RNA collected using the RNeasy mini kit, according to manufacturer's instructions (Qiagen). Conventional RNA-seq was conducted via BGI Americas on the BGI Proprietary platform, providing single-end 50 bp reads at 20 million reads per sample. Alignment of sequencing data was done using DNAstar Lasergene SeqManPro to the GRCh37. p 13 human genome reference assembly, and assembly data were imported into ArrayStar 12.2 with QSeq (DNAStar Inc.) to quantify the gene expression levels and normalization to reads per kilobase per million (RPKM). Differential expression analysis and statistical significance calculations between different conditions was assessed using “DESeq” in R, compared to vehicle-treated cells, using a standard negative binomial fit of the RPKM data to generate Fold Change quantifications.
# The purpose of this example was to define the ability of the compounds to selectively induce expression of IRE1/XBP1s target genes: for this purpose, RNAseq was performed on HEK293T cells that had been treated with compound No. 198, 474, or 970 for 6 h. As a control, RNAseq was performed on cells that had been treated with the global UPR activator Tg. […] These include the ER stress-responsive transcription factor XBP1 and the ER proteostasis factors SEC24D, […], and HERPUD1^8.
# The next step defined the selectivity of the compounds for IRE1/XBP1s signaling relative to other arms of the UPR. […] To overcome this challenge, the expression of individual genes that are included in these genesets were normalized to the expression observed in Tg-treated cells (Tg representing 100% activation of these genes). It was therefore possible to directly compare gene expression without complications arising from differential expression^42.
# [3] = tested on: ER proteostasis factors; test: RNAseq expression of 124 proteostasis factors; assay type: cell-based, human
# Protocol: as §1
# One of the mechanisms by which IRE1/XBP1s activation is protective is through the targeted transcriptional remodeling of ER proteostasis pathways. Because it was observed that compounds such as 474 and 970 selectively activate IRE1/XBP1s signaling, it was desired to confirm that these compounds similarly promote targeted ER proteostasis network remodeling. […]
Compound,EC50 [1] [nM],expression of the PERK geneset [2],remodeling of ER proteostasis factors relative to other compartments [3]
CCOC(CNC(=O)C1CCCN(Cc2nc(-c3ccc(Cl)cc3)oc2C)C1)OCC (centres unmarked) [Compound 198],< 3000,increased expression of the PERK geneset,
Cc1ccc(OCCN(C)C(=O)Cn2cc(NC(=O)CCOc3ccccc3)cn2)cc1 [Compound 474],< 3000,did not demonstrate this effect,selective remodeling
O=C(CN(Cc1ccc(Cl)cc1)S(=O)(=O)c1cccnc1)N1CCc2ccccc21 [Compound 970],< 3000,did not demonstrate this effect,selective remodeling
